For test [1], the target named is Receptor-type tyrosine-protein phosphatase beta (Homo sapiens, UniProt P23467).
Test [2] concerns the target T1, Low molecular weight phosphotyrosine protein phosphatase (Homo sapiens, UniProt P24666).
T1 sequence (P24666 whole entry): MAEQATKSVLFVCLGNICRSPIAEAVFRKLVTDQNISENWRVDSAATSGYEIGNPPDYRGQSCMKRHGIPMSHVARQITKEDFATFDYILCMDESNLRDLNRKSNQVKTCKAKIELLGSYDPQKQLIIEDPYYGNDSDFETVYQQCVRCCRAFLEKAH
Briefly: Inhibition of HCPTPA.

In test [3] the target is T2, Receptor-type tyrosine-protein phosphatase F (Homo sapiens, UniProt P10586). The test is described as follows: Inhibition of LAR1.
The target in test [4] is T3, Receptor-type tyrosine-protein phosphatase C (Homo sapiens, UniProt P08575).
T3 sequence (P08575 whole entry): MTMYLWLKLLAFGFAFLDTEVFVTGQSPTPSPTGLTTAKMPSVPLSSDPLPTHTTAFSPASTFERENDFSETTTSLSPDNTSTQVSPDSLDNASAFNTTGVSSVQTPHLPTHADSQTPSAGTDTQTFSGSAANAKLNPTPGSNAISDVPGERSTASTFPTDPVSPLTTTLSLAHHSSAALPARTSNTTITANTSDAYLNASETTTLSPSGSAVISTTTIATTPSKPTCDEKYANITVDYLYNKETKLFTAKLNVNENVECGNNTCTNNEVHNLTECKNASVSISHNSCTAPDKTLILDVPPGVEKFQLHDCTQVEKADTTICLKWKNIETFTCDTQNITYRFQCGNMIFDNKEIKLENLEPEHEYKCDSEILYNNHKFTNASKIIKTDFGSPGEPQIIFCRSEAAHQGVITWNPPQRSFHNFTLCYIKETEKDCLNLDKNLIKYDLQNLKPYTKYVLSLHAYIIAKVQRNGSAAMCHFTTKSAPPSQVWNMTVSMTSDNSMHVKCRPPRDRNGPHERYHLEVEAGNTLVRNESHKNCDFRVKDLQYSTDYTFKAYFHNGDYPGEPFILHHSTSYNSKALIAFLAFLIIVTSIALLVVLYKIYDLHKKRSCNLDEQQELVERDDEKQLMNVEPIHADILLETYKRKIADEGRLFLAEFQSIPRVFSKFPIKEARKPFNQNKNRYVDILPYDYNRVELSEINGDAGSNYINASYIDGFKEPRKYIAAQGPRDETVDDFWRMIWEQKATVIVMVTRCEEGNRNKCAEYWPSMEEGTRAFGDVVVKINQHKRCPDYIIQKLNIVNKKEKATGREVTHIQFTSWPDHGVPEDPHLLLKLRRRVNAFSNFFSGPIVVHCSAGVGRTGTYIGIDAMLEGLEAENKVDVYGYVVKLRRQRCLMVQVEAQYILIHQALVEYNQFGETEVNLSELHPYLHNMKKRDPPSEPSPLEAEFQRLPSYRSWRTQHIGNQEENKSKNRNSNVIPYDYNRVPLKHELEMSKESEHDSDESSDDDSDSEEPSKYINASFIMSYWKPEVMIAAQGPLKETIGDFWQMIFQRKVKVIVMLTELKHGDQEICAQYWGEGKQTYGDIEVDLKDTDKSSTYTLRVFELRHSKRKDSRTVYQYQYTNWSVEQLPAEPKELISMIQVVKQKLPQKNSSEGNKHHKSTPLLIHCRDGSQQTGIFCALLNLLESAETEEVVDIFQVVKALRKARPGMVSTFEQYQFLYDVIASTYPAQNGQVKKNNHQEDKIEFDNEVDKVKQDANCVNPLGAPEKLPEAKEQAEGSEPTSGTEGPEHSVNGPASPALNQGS
Briefly: Inhibition of CD45.

Test [5] addresses T4, Tyrosine-protein phosphatase non-receptor type 1 (Homo sapiens, UniProt P18031).
T4 sequence (P18031 whole entry): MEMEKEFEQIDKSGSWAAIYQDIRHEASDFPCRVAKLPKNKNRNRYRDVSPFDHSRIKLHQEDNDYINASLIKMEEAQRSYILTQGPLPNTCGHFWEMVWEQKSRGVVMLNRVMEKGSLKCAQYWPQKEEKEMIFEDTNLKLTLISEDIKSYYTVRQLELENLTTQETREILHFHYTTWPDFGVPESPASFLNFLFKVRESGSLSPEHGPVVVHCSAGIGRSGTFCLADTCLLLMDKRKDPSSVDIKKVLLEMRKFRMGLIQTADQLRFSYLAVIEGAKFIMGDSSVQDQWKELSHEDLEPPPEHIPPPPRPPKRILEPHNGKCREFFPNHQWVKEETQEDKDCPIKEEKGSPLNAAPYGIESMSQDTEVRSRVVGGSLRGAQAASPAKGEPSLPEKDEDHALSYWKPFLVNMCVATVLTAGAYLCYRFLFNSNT
The test is described as follows: Inhibition of PTP1B.

Test [6] addresses Receptor-type tyrosine-protein phosphatase mu (Homo sapiens, UniProt P28827). The test is described as follows: Inhibition of HPTP mu.
Test [7] addresses T5, Tyrosine-protein phosphatase non-receptor type 2 (Homo sapiens, UniProt P17706).
T5 sequence (P17706 whole entry): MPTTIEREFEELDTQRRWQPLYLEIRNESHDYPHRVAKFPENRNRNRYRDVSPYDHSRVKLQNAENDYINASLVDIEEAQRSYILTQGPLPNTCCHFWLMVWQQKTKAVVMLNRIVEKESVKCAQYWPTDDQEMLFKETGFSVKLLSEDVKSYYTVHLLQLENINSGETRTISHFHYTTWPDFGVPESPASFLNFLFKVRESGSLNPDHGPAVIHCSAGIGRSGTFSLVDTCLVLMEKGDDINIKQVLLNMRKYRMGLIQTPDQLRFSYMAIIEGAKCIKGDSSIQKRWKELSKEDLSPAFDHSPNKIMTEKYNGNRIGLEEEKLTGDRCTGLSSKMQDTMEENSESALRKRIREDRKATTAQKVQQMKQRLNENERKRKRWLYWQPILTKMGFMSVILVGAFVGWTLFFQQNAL
Briefly: Inhibition of TCPTP38.

The target in test [8] is T2, Receptor-type tyrosine-protein phosphatase F. Briefly: Inhibition of LAR2.
The target in test [9] is Receptor-type tyrosine-protein phosphatase gamma (Homo sapiens, UniProt P23470). The test is described as follows: Inhibition of PTP gamma.
The target of test [10] is Receptor-type tyrosine-protein phosphatase epsilon (Homo sapiens, UniProt P23469). Briefly: Inhibition of HPTP epsilon.
The target of test [11] is Receptor-type tyrosine-protein phosphatase alpha (Homo sapiens, UniProt P18433). The test is described as follows: Inhibition HPTPA.
Test [12] has as its target T5, Tyrosine-protein phosphatase non-receptor type 2. The test is described as follows: Inhibition of TCPTP.

Data on 28 compounds can be found in ChEMBL document CHEMBL1146847, “Design and synthesis of potent, non-peptidic inhibitors of HPTPbeta” (Bioorg Med Chem Lett, 2006).

Structures are written as SMILES. Where only a bound is given, the exact number is not on record here.

A word on the IC50: it is the point on the concentration scale where inhibition reaches its midpoint. Read a high IC50 as weaker potency.

Chain of Receptor-type tyrosine-protein phosphatase gamma (P23470 whole entry): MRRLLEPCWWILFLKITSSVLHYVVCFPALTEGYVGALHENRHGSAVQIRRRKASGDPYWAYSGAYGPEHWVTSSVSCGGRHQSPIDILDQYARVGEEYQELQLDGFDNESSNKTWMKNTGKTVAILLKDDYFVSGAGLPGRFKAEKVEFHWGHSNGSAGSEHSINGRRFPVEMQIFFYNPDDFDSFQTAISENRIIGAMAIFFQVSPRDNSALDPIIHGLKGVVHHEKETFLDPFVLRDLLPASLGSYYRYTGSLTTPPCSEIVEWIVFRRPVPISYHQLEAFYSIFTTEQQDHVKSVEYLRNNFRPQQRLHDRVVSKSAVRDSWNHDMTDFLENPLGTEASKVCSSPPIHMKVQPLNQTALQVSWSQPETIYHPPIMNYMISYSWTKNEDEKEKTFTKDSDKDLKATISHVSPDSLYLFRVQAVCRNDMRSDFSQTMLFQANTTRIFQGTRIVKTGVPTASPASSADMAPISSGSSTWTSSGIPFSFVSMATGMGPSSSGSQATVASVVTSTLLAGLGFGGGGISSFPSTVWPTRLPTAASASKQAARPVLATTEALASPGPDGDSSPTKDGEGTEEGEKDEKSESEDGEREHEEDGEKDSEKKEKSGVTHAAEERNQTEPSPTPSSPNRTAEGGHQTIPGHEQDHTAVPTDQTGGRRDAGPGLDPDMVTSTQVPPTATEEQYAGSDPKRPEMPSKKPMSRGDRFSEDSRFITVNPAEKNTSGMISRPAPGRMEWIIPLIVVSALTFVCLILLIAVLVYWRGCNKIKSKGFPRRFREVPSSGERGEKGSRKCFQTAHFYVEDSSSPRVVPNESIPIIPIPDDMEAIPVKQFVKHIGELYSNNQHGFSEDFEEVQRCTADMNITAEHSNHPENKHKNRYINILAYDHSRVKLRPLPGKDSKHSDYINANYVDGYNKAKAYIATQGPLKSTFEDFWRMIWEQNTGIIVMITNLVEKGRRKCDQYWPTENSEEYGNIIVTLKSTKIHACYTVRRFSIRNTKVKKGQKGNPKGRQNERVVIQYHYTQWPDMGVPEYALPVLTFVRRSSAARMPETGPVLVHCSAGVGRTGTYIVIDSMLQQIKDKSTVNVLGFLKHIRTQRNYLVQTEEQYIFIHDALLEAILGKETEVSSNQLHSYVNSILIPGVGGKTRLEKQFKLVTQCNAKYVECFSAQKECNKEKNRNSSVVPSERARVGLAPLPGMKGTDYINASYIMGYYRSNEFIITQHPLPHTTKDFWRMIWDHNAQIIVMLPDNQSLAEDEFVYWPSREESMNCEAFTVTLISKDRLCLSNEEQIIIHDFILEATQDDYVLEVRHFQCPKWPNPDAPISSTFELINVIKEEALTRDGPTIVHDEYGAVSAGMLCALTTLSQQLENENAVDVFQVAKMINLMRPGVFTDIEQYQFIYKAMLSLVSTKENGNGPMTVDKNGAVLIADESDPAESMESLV
T2 sequence (P10586 whole entry): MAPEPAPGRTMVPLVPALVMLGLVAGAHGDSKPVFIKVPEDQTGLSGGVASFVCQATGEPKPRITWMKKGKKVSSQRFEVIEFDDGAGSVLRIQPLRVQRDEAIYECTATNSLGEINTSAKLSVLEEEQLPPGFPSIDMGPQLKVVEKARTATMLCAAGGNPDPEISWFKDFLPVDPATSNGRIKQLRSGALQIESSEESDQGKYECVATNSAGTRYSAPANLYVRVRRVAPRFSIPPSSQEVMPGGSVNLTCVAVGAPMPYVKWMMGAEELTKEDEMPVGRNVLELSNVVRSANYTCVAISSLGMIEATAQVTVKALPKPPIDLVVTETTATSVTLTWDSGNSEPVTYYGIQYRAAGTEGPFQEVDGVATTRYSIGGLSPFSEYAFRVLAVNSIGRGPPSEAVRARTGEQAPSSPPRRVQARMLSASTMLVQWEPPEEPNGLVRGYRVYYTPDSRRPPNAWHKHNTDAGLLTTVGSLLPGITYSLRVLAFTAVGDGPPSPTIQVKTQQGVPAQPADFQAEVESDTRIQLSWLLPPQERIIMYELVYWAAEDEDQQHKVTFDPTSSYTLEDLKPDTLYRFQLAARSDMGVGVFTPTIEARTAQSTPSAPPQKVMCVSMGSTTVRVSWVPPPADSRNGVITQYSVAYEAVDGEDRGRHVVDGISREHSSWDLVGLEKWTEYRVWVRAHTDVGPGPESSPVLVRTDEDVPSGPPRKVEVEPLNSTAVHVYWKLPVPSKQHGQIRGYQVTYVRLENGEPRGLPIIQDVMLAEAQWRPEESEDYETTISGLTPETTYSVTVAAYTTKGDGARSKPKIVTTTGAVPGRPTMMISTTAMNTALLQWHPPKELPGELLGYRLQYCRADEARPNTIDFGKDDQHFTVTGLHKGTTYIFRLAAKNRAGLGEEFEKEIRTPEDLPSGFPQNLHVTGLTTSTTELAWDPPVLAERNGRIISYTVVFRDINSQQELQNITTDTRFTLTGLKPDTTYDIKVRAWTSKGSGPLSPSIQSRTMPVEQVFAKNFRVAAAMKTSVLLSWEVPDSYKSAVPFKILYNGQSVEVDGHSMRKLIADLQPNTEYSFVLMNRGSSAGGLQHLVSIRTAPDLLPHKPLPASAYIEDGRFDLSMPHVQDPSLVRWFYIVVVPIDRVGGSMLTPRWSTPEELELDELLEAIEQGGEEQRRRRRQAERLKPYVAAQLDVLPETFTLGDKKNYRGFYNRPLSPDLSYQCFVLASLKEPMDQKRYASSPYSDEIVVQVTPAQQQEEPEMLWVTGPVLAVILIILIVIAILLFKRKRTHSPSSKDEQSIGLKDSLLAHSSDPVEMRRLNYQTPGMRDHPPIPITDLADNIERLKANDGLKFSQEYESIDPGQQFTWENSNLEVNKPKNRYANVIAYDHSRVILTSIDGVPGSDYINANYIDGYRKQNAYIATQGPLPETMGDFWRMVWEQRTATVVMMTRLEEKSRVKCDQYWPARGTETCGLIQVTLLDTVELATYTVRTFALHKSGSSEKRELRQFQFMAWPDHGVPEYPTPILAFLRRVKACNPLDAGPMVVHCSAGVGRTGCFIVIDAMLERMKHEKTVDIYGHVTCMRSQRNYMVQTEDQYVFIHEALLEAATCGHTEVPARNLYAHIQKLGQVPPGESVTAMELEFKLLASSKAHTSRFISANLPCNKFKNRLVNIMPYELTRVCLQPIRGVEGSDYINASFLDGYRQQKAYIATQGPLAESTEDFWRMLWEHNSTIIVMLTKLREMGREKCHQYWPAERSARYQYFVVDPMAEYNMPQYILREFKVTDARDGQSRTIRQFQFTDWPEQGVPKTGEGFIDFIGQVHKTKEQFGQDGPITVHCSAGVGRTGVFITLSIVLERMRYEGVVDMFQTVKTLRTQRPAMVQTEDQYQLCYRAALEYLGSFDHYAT
Chain of Receptor-type tyrosine-protein phosphatase epsilon (P23469 whole entry): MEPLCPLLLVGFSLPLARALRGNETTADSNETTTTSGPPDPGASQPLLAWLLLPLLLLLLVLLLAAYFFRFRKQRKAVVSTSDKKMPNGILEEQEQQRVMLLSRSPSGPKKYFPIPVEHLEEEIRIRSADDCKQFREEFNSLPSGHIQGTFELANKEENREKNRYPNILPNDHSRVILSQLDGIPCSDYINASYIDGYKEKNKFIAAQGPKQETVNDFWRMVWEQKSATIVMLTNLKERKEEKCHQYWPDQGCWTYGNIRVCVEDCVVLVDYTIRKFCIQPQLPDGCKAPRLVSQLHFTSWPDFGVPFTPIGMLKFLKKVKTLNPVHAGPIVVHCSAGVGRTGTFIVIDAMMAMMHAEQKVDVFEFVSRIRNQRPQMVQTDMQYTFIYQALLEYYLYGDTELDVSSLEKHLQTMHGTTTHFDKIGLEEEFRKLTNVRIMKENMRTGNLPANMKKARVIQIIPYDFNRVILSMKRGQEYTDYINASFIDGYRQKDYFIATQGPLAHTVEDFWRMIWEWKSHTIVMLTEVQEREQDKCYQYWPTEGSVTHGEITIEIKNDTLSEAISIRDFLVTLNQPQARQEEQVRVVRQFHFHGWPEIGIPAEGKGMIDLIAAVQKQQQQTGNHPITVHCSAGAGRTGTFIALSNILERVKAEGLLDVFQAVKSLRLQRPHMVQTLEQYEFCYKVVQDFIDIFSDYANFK
Chain of Receptor-type tyrosine-protein phosphatase alpha (P18433 whole entry): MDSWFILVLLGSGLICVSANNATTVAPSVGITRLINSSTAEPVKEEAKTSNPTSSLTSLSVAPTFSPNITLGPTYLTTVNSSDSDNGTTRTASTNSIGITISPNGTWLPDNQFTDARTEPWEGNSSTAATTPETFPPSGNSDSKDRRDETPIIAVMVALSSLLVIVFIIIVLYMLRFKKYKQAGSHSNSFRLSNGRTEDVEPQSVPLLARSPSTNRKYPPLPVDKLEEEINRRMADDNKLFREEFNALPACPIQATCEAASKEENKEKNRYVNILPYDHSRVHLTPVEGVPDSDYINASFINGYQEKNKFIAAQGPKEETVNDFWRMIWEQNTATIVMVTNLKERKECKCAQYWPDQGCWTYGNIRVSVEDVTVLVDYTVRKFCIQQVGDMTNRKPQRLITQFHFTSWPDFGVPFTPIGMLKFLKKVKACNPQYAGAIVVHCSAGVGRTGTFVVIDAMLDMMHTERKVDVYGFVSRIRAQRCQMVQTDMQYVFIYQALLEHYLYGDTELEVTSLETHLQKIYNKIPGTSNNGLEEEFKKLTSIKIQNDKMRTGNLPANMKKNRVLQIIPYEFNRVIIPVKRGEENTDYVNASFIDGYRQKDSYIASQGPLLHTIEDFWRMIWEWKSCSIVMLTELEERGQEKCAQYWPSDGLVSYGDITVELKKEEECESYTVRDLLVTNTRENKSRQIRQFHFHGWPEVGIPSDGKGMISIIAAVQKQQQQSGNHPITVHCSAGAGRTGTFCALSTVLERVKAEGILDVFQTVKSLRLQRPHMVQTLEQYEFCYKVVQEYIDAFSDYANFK

In [1], `COC(=O)C(COCc1ccccc1)(Cc1ccc(NS(=O)(=O)O)cc1)C(=O)OC` returned an IC50 of 270 nM.

Consider `COC(=O)C(Cc1ccc(NS(=O)(=O)O)cc1)(Cc1ccc(C(=O)O)cc1)C(=O)OC`, for which it took 140 nM to reach half-maximal inhibition in [1] (IC50).

The compound `COC(=O)C(CCCSc1nnnn1-c1ccccc1)(Cc1ccc(NS(=O)(=O)O)cc1)C(=O)OC` yielded a concentration for half-maximal inhibition (IC50) in [1] of 200 nM.

With `COC(=O)C(Cc1ccc(NS(=O)(=O)O)cc1)(Cc1cccc(OC)c1)C(=O)OC`, the IC50 in [1] was 330 nM.

Take `COC(=O)C(CCCS(=O)(=O)c1nnnn1-c1ccccc1)(Cc1ccc(NS(=O)(=O)O)cc1)C(=O)OC`: in test [1], half-maximal inhibition (IC50) was put at 80 nM.

`COC(=O)c1cccc(CC(Cc2ccc(NS(=O)(=O)O)cc2)(C(=O)OC)C(=O)OC)c1`: the IC50 in [1] was determined as 290 nM.

Take `COC(=O)C(Cc1ccc(NS(=O)(=O)O)cc1)(Cc1ccc(OC)cc1)C(=O)OC`: 390 nM corresponded to half-maximal inhibition in test [1] (IC50).

`COC(=O)CCCC(Cc1ccc(NS(=O)(=O)O)cc1)(C(=O)OC)C(=O)OC` gave an IC50 in [1] of 380 nM.

As to `COc1cccc(CC(Cc2ccc(NS(=O)(=O)O)cc2)(c2nc(C)no2)c2nc(C)no2)c1`, in [1], the midpoint of inhibition, the IC50, lay at 230 nM.

Take `Cc1noc(C(Cc2ccc(NS(=O)(=O)O)cc2)(Cc2cccc(C#N)c2)c2nc(C)no2)n1`: the IC50 in test [1] turned out to be 210 nM.

For the compound `CCOC(=O)C(Cc1ccc(NS(=O)(=O)O)cc1)(NC(=O)OC(C)(C)C)C(=O)OC` (configuration not stated), 450 nM corresponded to half-maximal inhibition in test [1] (IC50).

As to `COC(=O)C(CCCc1ccccc1)(Cc1ccc(NS(=O)(=O)O)cc1)C(=O)OC`, the IC50 in test [1] is 150 nM; in test [2], 7700 nM; in test [3], 409000 nM; in test [4], 29000 nM; in test [5], 2300 nM; in test [6], more than 500000 nM. The IC50 in [7] is 15300 nM; in test [8], more than 500000 nM; in test [9], 93000 nM; in test [10], more than 500000 nM.

As for `COC(=O)C(Cc1ccncc1)(Cc1ccc(NS(=O)(=O)O)cc1)C(=O)OC`, the midpoint of inhibition in test [1], the IC50, lay at 570 nM.

For `CCOC(=O)C(Cc1ccc(NS(=O)(=O)O)cc1)(NC(=O)OCc1ccccc1)C(=O)OC` (configuration not stated), the IC50 in [1] was 400 nM; in test [2], 82200 nM; in test [3], 227000 nM; in test [4], 280000 nM; in test [5], 12800 nM; in [6], more than 500000 nM. Moreover, the IC50 is 78000 nM in test [7], 472000 nM in [8], 196000 nM in [9] and more than 500000 nM in test [10].

In turn, `COC(=O)C(Cc1ccc(NS(=O)(=O)O)cc1)(Cc1ccc(NS(=O)(=O)O)cc1)C(=O)OC` gave a half-inhibitory concentration (IC50) in test [1] of 60 nM.

`CCOC(=O)C(CCNC(=O)OC(C)(C)C)(Cc1ccc(NS(=O)(=O)O)cc1)C(=O)OC` (configuration not stated) gave an IC50 in test [1] of 90 nM.

Turning to `COC(=O)c1ccc(CC(Cc2ccc(NS(=O)(=O)O)cc2)(C(=O)OC)C(=O)OC)cc1`, it took 410 nM to reach half-maximal inhibition in [1] (IC50).

The compound `COC(=O)C(Cc1ccc(NS(=O)(=O)O)cc1)(Cc1ccc(S(N)(=O)=O)cc1)C(=O)OC` returned an IC50 in test [1] of 430 nM.

As to `COC(=O)C(CCCS(C)(=O)=O)(Cc1ccc(NS(=O)(=O)O)cc1)C(=O)OC`, in test [1], half-maximal inhibition (IC50) was put at 420 nM.

The compound `COC(=O)C(CCCS(=O)(=O)c1ccccc1)(Cc1ccc(NS(=O)(=O)O)cc1)C(=O)OC` showed an IC50 in test [1] of 150 nM.

In test [1], `COC(=O)C(Cc1ccc(NS(=O)(=O)O)cc1)(Cc1cccc(NS(=O)(=O)O)c1)C(=O)OC` came in with a half-inhibitory concentration (IC50) of 100 nM.

As to `COc1ccc(CC(Cc2ccc(NS(=O)(=O)O)cc2)(c2nc(C)no2)c2nc(C)no2)cc1`, it took 340 nM to reach half-maximal inhibition in test [1] (IC50).

Turning to `COC(=O)C(Cc1ccccc1)(Cc1ccc(NS(=O)(=O)O)cc1)C(=O)OC`, the figures for the IC50 in [11], in [5] and in test [12] were 900 nM, 6100 nM and 19400 nM, respectively.

With `Cc1noc(C(CCCc2ccccc2)(Cc2ccc(NS(=O)(=O)O)cc2)c2nc(C)no2)n1`, in [1], the IC50 was 70 nM.

As for `COC(=O)C(Cc1ccc(NS(=O)(=O)O)cc1)C(=O)OC`, in test [1], the IC50 came to 1000 nM.

Consider `CCOC(=O)CC(Cc1ccc(NS(=O)(=O)O)cc1)(C(=O)OC)C(=O)OC`, for which the half-maximal inhibitory concentration (IC50) in [1] was 230 nM; in [2], 4800 nM; in test [3] it was 288000 nM; in test [4] it was 126000 nM; in [5] it was 16200 nM; in [6], more than 500000 nM. Also, the IC50 is 109000 nM in test [7], more than 500000 nM in test [8], 200000 nM in test [9] and more than 500000 nM in test [10].

As to `Cc1noc(C(Cc2ccc(NS(=O)(=O)O)cc2)(Cc2ccc(NS(=O)(=O)O)cc2)c2nc(C)no2)n1`, in test [1], inhibition was half-maximal at 80 nM (IC50).

Regarding `COC(=O)C(Cc1ccc(NS(=O)(=O)O)cc1)(Cc1cccc(S(N)(=O)=O)c1)C(=O)OC`, the IC50 in test [1] is 300 nM.
